PubChem BioAssay (NCI)
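Dose response: 5 concentrations. Exposure: 48 h. Format: 96-well plates. Endpoint: linear interpolation; highest concentration if not reached. At the TGI there is no net growth.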

Columns and labels:
Test in all cases: NCI tumour cell line growth inhibition, 48 h
SF-539 CNS = tested on: SF-539 CNS
U251 CNS = tested on: U251 CNS
HOP-62 NSCLC = tested on: HOP-62 NSCLC
SK-MEL-28 melanoma = tested on: SK-MEL-28 melanoma
HCT-15 colon = tested on: HCT-15 colon
SNB-19 CNS = tested on: SNB-19 CNS
NCI-H460 lung = tested on: NCI-H460 lung
OVCAR-5 ovarian = tested on: OVCAR-5 ovarian
SF-268 CNS = tested on: SF-268 CNS
MALME-3M melanoma = tested on: MALME-3M melanoma
OVCAR-8 ovarian = tested on: OVCAR-8 ovarian
HT29 colon = tested on: HT29 colon
MOLT-4 leukemia = tested on: MOLT-4 leukemia
MCF7 breast = tested on: MCF7 breast
UACC-257 melanoma = tested on: UACC-257 melanoma
KM12 colon = tested on: KM12 colon
NCI-H23 lung = tested on: NCI-H23 lung
DU-145 prostate = tested on: DU-145 prostate
SW-620 colon = tested on: SW-620 colon
MDA-MB-435 = tested on: MDA-MB-435
CAKI-1 renal = tested on: CAKI-1 renal
NCI-H522 lung = tested on: NCI-H522 lung
SN12C renal = tested on: SN12C renal
SK-MEL-2 melanoma = tested on: SK-MEL-2 melanoma
UACC-62 melanoma = tested on: UACC-62 melanoma
A549 NSCLC = tested on: A549 NSCLC
M14 melanoma = tested on: M14 melanoma
HOP-92 NSCLC = tested on: HOP-92 NSCLC
786-0 renal = tested on: 786-0 renal
SR leukemia = tested on: SR leukemia
BT-549 breast = tested on: BT-549 breast
A498 renal = tested on: A498 renal
HCC-2998 colon = tested on: HCC-2998 colon
SF-295 CNS = tested on: SF-295 CNS
HL-60(TB) leukemia = tested on: HL-60(TB) leukemia
IGROV1 ovarian = tested on: IGROV1 ovarian
RXF 393 renal = tested on: RXF 393 renal
LOX IMVI melanoma = tested on: LOX IMVI melanoma
TK-10 renal = tested on: TK-10 renal
PC-3 prostate = tested on: PC-3 prostate
COLO 205 colon = tested on: COLO 205 colon
OVCAR-4 ovarian = tested on: OVCAR-4 ovarian
MDA-N = tested on: MDA-N
EKVX NSCLC = tested on: EKVX NSCLC
ACHN renal = tested on: ACHN renal
SK-MEL-5 melanoma = tested on: SK-MEL-5 melanoma
UO-31 renal = tested on: UO-31 renal
HCT-116 colon = tested on: HCT-116 colon
OVCAR-3 ovarian = tested on: OVCAR-3 ovarian
HS 578T breast = tested on: HS 578T breast
MDA-MB-231 breast = tested on: MDA-MB-231 breast
RPMI-8226 leukemia = tested on: RPMI-8226 leukemia
K-562 leukemia = tested on: K-562 leukemia
NCI/ADR-RES ovarian = tested on: NCI/ADR-RES ovarian
NCI-H226 lung = tested on: NCI-H226 lung
SK-OV-3 ovarian = tested on: SK-OV-3 ovarian
CCRF-CEM leukemia = tested on: CCRF-CEM leukemia
T-47D breast = tested on: T-47D breast
SNB-75 CNS = tested on: SNB-75 CNS

SMILES: CC(C)OC(=O)C1=C2c3ncccc3C(=O)N2[C@@H](Cl)[C@@H](Cl)[C@@H]1Cl
- TGI (SF-539 CNS): > 100 µM
- TGI (U251 CNS): > 100 µM
- TGI (HOP-62 NSCLC): > 100 µM
- TGI (SK-MEL-28 melanoma): > 100 µM
- TGI (HCT-15 colon): > 100 µM
- TGI (SNB-19 CNS): > 100 µM
- TGI (NCI-H460 lung): > 100 µM
- TGI (OVCAR-5 ovarian): > 100 µM
- TGI (SF-268 CNS): > 100 µM
- TGI (MALME-3M melanoma): > 100 µM
- TGI (OVCAR-8 ovarian): > 100 µM
- TGI (HT29 colon): > 100 µM
- TGI (MOLT-4 leukemia): 95.9 µM
- TGI (MCF7 breast): > 100 µM
- TGI (UACC-257 melanoma): > 100 µM
- TGI (KM12 colon): > 100 µM
- TGI (NCI-H23 lung): > 100 µM
- TGI (DU-145 prostate): > 100 µM
- TGI (SW-620 colon): > 100 µM
- TGI (MDA-MB-435): > 100 µM
- TGI (CAKI-1 renal): > 100 µM
- TGI (NCI-H522 lung): > 100 µM
- TGI (SN12C renal): 90.4 µM
- TGI (SK-MEL-2 melanoma): > 100 µM
- TGI (UACC-62 melanoma): > 100 µM
- TGI (A549 NSCLC): > 100 µM
- TGI (M14 melanoma): > 100 µM
- TGI (HOP-92 NSCLC): > 100 µM
- TGI (786-0 renal): > 100 µM
- TGI (SR leukemia): > 100 µM
- TGI (BT-549 breast): > 100 µM
- TGI (A498 renal): > 100 µM
- TGI (HCC-2998 colon): > 100 µM
- TGI (SF-295 CNS): > 100 µM
- TGI (HL-60(TB) leukemia): > 100 µM
- TGI (IGROV1 ovarian): > 100 µM
- TGI (RXF 393 renal): > 100 µM
- TGI (LOX IMVI melanoma): > 100 µM
- TGI (TK-10 renal): > 100 µM
- TGI (PC-3 prostate): > 100 µM
- TGI (COLO 205 colon): > 100 µM
- TGI (OVCAR-4 ovarian): > 100 µM
- TGI (MDA-N): > 100 µM
- TGI (EKVX NSCLC): > 100 µM
- TGI (ACHN renal): > 100 µM
- TGI (SK-MEL-5 melanoma): > 100 µM
- TGI (UO-31 renal): > 100 µM
- TGI (HCT-116 colon): > 100 µM
- TGI (OVCAR-3 ovarian): > 100 µM
- TGI (HS 578T breast): > 100 µM
- TGI (MDA-MB-231 breast): > 100 µM
- TGI (RPMI-8226 leukemia): > 100 µM
- TGI (K-562 leukemia): > 100 µM
- TGI (NCI/ADR-RES ovarian): > 100 µM
- TGI (NCI-H226 lung): > 100 µM

SMILES: NN/C(=N\S(=O)(=O)c1cc2ccccc2o1)Nc1ccc(Cl)cc1
- TGI (SF-539 CNS): > 100 µM
- TGI (U251 CNS): > 100 µM
- TGI (HOP-62 NSCLC): > 100 µM
- TGI (SK-MEL-28 melanoma): > 100 µM
- TGI (HCT-15 colon): > 100 µM
- TGI (SNB-19 CNS): > 100 µM
- TGI (NCI-H460 lung): > 100 µM
- TGI (OVCAR-5 ovarian): > 100 µM
- TGI (SF-268 CNS): > 100 µM
- TGI (MALME-3M melanoma): > 100 µM
- TGI (OVCAR-8 ovarian): > 100 µM
- TGI (HT29 colon): > 100 µM
- TGI (MOLT-4 leukemia): > 100 µM
- TGI (MCF7 breast): > 100 µM
- TGI (UACC-257 melanoma): > 100 µM
- TGI (SK-OV-3 ovarian): > 100 µM
- TGI (KM12 colon): > 100 µM
- TGI (NCI-H23 lung): > 100 µM
- TGI (DU-145 prostate): > 100 µM
- TGI (SW-620 colon): > 100 µM
- TGI (CAKI-1 renal): > 100 µM
- TGI (NCI-H522 lung): 68.3 µM
- TGI (SN12C renal): > 100 µM
- TGI (SK-MEL-2 melanoma): > 100 µM
- TGI (UACC-62 melanoma): > 100 µM
- TGI (A549 NSCLC): > 100 µM
- TGI (M14 melanoma): > 100 µM
- TGI (CCRF-CEM leukemia): > 100 µM
- TGI (HOP-92 NSCLC): 59.5 µM
- TGI (786-0 renal): > 100 µM
- TGI (SR leukemia): > 100 µM
- TGI (BT-549 breast): > 100 µM
- TGI (A498 renal): > 100 µM
- TGI (SF-295 CNS): > 100 µM
- TGI (HL-60(TB) leukemia): > 100 µM
- TGI (IGROV1 ovarian): > 100 µM
- TGI (RXF 393 renal): 64.2 µM
- TGI (LOX IMVI melanoma): > 100 µM
- TGI (TK-10 renal): > 100 µM
- TGI (PC-3 prostate): > 100 µM
- TGI (COLO 205 colon): > 100 µM
- TGI (OVCAR-4 ovarian): > 100 µM
- TGI (MDA-N): > 100 µM
- TGI (EKVX NSCLC): > 100 µM
- TGI (ACHN renal): > 100 µM
- TGI (SK-MEL-5 melanoma): > 100 µM
- TGI (T-47D breast): > 100 µM
- TGI (UO-31 renal): > 100 µM
- TGI (HCT-116 colon): > 100 µM
- TGI (OVCAR-3 ovarian): > 100 µM
- TGI (HS 578T breast): 97.2 µM
- TGI (SNB-75 CNS): 85.8 µM
- TGI (MDA-MB-231 breast): > 100 µM
- TGI (RPMI-8226 leukemia): > 100 µM
- TGI (K-562 leukemia): > 100 µM
- TGI (NCI/ADR-RES ovarian): > 100 µM
- TGI (NCI-H226 lung): > 100 µM
